Measured values taken from patent US7495104B2, “Quinoline or quinazoline derivatives inhibiting auto-phosphorylation of fibroblast growth factor receptors” (Kirin Beer Kabushiki Kaisha, priority 2001, dated 2009).
pIC50: −log10 of the molar value.

What follows are compounds tested against Bek (Homo sapiens, UniProt P21802) (assay: Inhibitory activity against Bek-autophosphorylation using ELISA method in OCUM-2MD3 cells). Settings: 1 hr with compound, read-out: IC50 (concentration necessary for inhibiting 50% of Bek-phosphorylation).
Type: cell-based
Procedure: Human scirrhus stomach cancer cells OCUM-2MD3 (kindly provided by Dr. Kosei Hirakawa, Osaka City University) were cultured in an RPMI medium containing 10% fetal calf serum (purchased from ICN) within a 5% carbon dioxide incubator until 50 to 90% confluent. The harvested cells were seeded onto 96-well flat-bottom plate in RPMI containing 0.1% fetal calf serum at 3.5×10^4 cells per well, followed by cultivation at 37° C. overnight. A solution of the test compound in dimethyl sulfoxide was added to each well, and the cultivation was continued at 37° C. for additional one hr. The medium was removed, and 50 μl of lysis buffer (20 mM HEPES (pH 7.4), 150 mM NaCl, 0.2% Triton X-100, 10% glycerol, 5 mM sodium orthovanadylate, 5 mM disodium ethylenediaminetetraacetate, and 2 mM Na4P2O7) was then added thereto. The mixture was shaken at 4° C. for 2 hr to prepare cell extracts.
Separately, phosphate buffered saline (50 μl, pH 7.4) containing 5 μg/ml of anti-phospho-tyrosine antibody (PY20; purchased from Transduction Laboratories) was added to a microplate for ELISA (Maxisorp; purchased from NUNC), followed by standing at 4° C. overnight to form a solid phase on the wells. After washing of the plate, 300 μl of a blocking solution was added, followed by standing at room temperature for 2 hr to perform blocking. After washing, the whole quantity of the cell extracts was transferred to the wells, and the plate was then allowed to stand at 4° C. overnight. After washing, an anti-Bek antibody (Bek (C-17), purchased from Santa Cruz Biotechnology) or Anti-Human K-sam Rabbit IgG Affinity Purity (purchased from IBL Co., Ltd.) was allowed to react at room temperature for one hr, and, after washing, a peroxidase-labeled anti-rabbit Ig antibody (purchased from Amersham) was allowed to react at room temperature for one hr. After washing, a chromophoric substrate for peroxidase (purchased from Sumitomo Bakelite Co., Ltd.) was added thereto to initiate a reaction. After a suitable level of color development, a reaction termination solution was added to stop the reaction, and the absorbance at 450 nm was measured with a microplate reader. The Bek-phosphorylation activity for each well was determined by presuming the absorbance without the addition of the medicament to be 100% Bek-phosphorylation activity and the absorbance with the addition of a large excess of a positive control (N-{4-[(6,7-dimethoxy-4-quinolyl)oxy]phenyl}-N′-(3,3-dimethylbutyl)urea, 1000 nM) to be 0% Bek-phosphorylation activity. The concentration of the test compound was varied on several levels, the Bek-phosphorylation inhibitory activity was determined for each case, and the concentration of the test compound necessary for inhibiting 50% of Bek-phosphorylation (IC50) was calculated.

Bek, sequence (P21802 431-767 limits assumed): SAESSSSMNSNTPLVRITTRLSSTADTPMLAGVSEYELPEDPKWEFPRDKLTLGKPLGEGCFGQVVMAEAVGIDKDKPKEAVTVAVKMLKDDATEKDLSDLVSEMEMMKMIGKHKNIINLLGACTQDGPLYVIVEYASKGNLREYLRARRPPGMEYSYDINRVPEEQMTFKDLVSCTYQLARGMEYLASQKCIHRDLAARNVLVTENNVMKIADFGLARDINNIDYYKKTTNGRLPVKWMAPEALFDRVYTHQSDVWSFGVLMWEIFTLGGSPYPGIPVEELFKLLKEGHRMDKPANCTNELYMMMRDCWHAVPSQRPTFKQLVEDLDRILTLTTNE

SMILES | pIC50
COc1cc2c(Oc3ccc(Nc4ccc(C(C)(C)C)cc4)cc3)ccnc2cc1OCCCN1CCCCC1 [Compound 34, (4-Tert-butylphenyl)-{4-[6-methoxy-7-(3-piperidin-1-ylpropoxy)-quinolin-4-yloxy]phenyl}amine] | 6.66
COc1cc2c(Oc3ccc(Nc4ccc(C(C)(C)C)cc4)cc3)ccnc2cc1OCCCN1CCN(C)CC1 [Compound 35, (4-Tert-butylphenyl)-(4-{6-methoxy-7-[3-(4-methylpiperazin-1-yl)propoxy]quinolin-4-yloxy}phenyl)amine] | 6.66
COc1cc2c(Oc3ccc(Nc4ccc(C(C)(C)C)cc4)cc3)ccnc2cc1OCCCCN1CCCCC1 [Compound 36, (4-Tert-butylphenyl)-{4-[6-methoxy-7-(4-piperidin-1-ylbutoxy)-quinolin-4-yloxy]phenyl}amine] | 6.61
COc1cc2c(Oc3ccc(Nc4ccc(C(C)(C)C)cc4)cc3)ccnc2cc1OCCN1CCOCC1 [Compound 37, (4-Tert-butylphenyl)-{4-[6-methoxy-7-(2-morpholin-4-ylethoxy)quinolin-4-yloxy]phenyl}amine] | 6.46
COc1cc2c(Oc3ccc(Nc4ccc(C(C)(C)C)cc4)cc3)ccnc2cc1OCCN1CCCCC1 [Compound 38, (4-Tert-butylphenyl)-{4-[6-methoxy-7-(2-piperidin-1-ylethoxy)-quinolin-4-yloxy]phenyl}amine] | 6.33
COc1cc2c(Oc3ccc(Nc4ccc(C(C)(C)C)cc4)cc3)ccnc2cc1OCCN1CCCC1 [Compound 39, (4-Tert-butylphenyl)-{4-[6-methoxy-7-(2-pyrrolidin-1-ylethoxy)-quinolin-4-yloxy]phenyl}amine] | 6.24
COc1cc2c(Oc3ccc(Nc4ccc(C(C)(C)C)cc4)cc3)ccnc2cc1OCCN(C)C [Compound 40, N1-[4-(Tert-butyl)phenyl]-4-({7-[2-(dimethylamino)ethoxy]-6-methoxy-4-quinolyl}oxy)aniline] | 6.03
CCN(CC)CCOc1cc2nccc(Oc3ccc(Nc4ccc(C(C)(C)C)cc4)cc3)c2cc1OC [Compound 41, N1-[4-(Tert-butyl)phenyl]-4-({7-[2-(diethylamino)ethoxy]-6-methoxy-4-quinolyl}oxy)aniline] | 6.32
CCCN1CCC(COc2cc3nccc(Oc4ccc(Nc5ccc(C(C)(C)C)cc5)cc4)c3cc2OC)CC1 [Compound 42, (4-Tert-butylphenyl)-{4-[6-methoxy-7-(1-propylpiperidin-4-ylmethoxy)quinolin-4-yloxy]phenyl}amine] | 6.40
COc1ccc(Nc2ccc(Oc3ccnc4cc(OC)c(OC)cc34)cc2)cc1OC [Compound 43, (3,4-Dimethoxyphenyl)-[4-(6,7-dimethoxyquinolin-4-yloxy)-phenyl]amine] | 5.48
COc1cc2nccc(Oc3ccc(Nc4ccc(N5CCOCC5)cc4)cc3)c2cc1OC [Compound 44, [4-(6,7-Dimethoxyquinolin-4-yloxy)phenyl]-(4-morpholin-4-ylphenyl)amine] | 7.12
COc1cc2c(Oc3ccc(Nc4ccc(C(C)(C)C)cc4)cc3)ccnc2cc1OCCN1CCCN(C)CC1 [Compound 45, (4-Tert-butylphenyl)-(4-{6-methoxy-7-[2-(4-methyl-[1,4]diazepin-1-yl)ethoxy]quinolin-4-yloxy}phenyl)amine] | 6.62
COc1cc2c(Oc3ccc(Nc4ccc(C(C)(C)C)cc4)cc3)ccnc2cc1OCCCN(C)C [Compound 46, N1-[4-(Tert-butyl)phenyl]-4-({7-[3-(dimethylamino)propoxy]-6-methoxy-4-quinolyl}oxy)aniline] | 6.64
CCN(CC)CCCOc1cc2nccc(Oc3ccc(Nc4ccc(C(C)(C)C)cc4)cc3)c2cc1OC [Compound 47, N1-[4-(Tert-butyl)phenyl]-4-({7-[3-(diethylamino)propoxy]-6-methoxy-4-quinolyl}oxy)aniline] | 6.61
COc1cc2c(Oc3ccc(Nc4ccc(C(C)(C)C)cc4)cc3)ccnc2cc1OCCN(CCO)CCO [Compound 48, 2-[(2-{4-[4-(4-Tert-butyl-phenylamino)phenoxy]-6-methoxy-quinolin-7-yloxy}ethyl)-(2-hydroxyethyl)amino]ethanol] | 7.47
COc1cc2c(Oc3ccc(Nc4ccc(C(C)(C)C)cc4)cc3)ccnc2cc1OCCN(C)CCO [Compound 49, 2-[(2-{4-[4-(4-Tert-butyl-phenylamino)phenoxy]-6-methoxy-quinolin-7-yloxy}ethyl)methylamino]ethanol] | 7.47
COc1cc2c(Oc3ccc(Nc4ccc(C(C)(C)C)cc4)cc3)ccnc2cc1OCCN1CCCCCC1 [Compound 50, {4-[7-(2-Azepan-1-ylethoxy)-6-methoxyquinolin-4-yloxy]phenyl}-(4-tert-butylphenyl)amine] | 7.46
COc1cc2c(Oc3ccc(Nc4ccc(C(C)(C)C)cc4)cc3)ccnc2cc1OCCCN(CCO)CCO [Compound 51, 2-[(3-{4-[4-(4-Tert-butylphenylamino)phenoxy]-6-methoxy-quinolin-7-yloxy}propyl)-(2-hydroxyethyl)amino]ethanol] | 7.51
COc1cc2c(Oc3ccc(Nc4ccc(C(C)(C)C)cc4)cc3)ccnc2cc1OCCCN(C)CCO [Compound 52, 2-[(3-{4-[4-(4-Tert-butylphenylamino)phenoxy]-6-methoxy-quinolin-7-yloxy}propyl)methylamino]ethanol] | 7.48
COc1cc2c(Oc3ccc(Nc4ccc(C(C)(C)C)cc4)cc3)ccnc2cc1OCCCN1CCCC1 [Compound 53, (4-Tert-butylphenyl)-{4-[6-methoxy-7-(3-pyrrolidin-1-ylpropoxy)-quinolin-4-yloxy]phenyl}amine] | 7.42
COc1cc2c(Oc3ccc(Nc4ccc(C(C)(C)C)cc4)cc3)ccnc2cc1OCCCN1CCCCCC1 [Compound 54, {4-[7-(3-Azepan-1-ylpropoxy)-6-methoxyquinolin-4-yloxyl]-phenyl}-(4-tert-butylphenyl)amine] | 6.49
COc1cc2c(Oc3ccc(Nc4ccc(C(C)(C)C)cc4)cc3)ccnc2cc1OCC1CCCCN1C (stereo not drawn) [Compound 55, (4-Tert-butylphenyl)-{4-[6-methoxy-7-(1-methylpiperidin-2-ylmethoxy)quinolin-4-yloxy]phenyl}amine] | 5.10
COc1cc2c(Oc3ccc(Nc4ccc(C(C)(C)C)cc4)cc3)ccnc2cc1OCC1CCCN(C)C1 (stereo not drawn) [Compound 56, (4-Tert-butylphenyl)-{4-[6-methoxy-7-(1-methylpiperidin-3-ylmethoxy)quinolin-4-yloxy]phenyl}amine] | 6.39
COc1cc2c(Oc3ccc(Nc4ccc(C(C)(C)C)cc4)cc3)ccnc2cc1OCC1CCCN1C (stereo not drawn) [Compound 58, (4-Tert-butylphenyl)-{4-[6-methoxy-7-(1-methylpyrrolidin-2-ylmethoxy)quinolin-4-yloxy]phenyl}amine] | 5.92
COc1cc2c(Oc3ccc(Nc4ccc(C(C)(C)C)cc4)cc3)ccnc2cc1OCC(O)CN1CCOCC1 (stereo not drawn) [Compound 59, 1-{4-[4-(4-Tert-butyl-phenylamino)phenoxy]-6-methoxyquinolin-7-yloxy}-3-morpholin-4-ylpropan-2-ol] | 6.85
CCN(CC)CC(O)COc1cc2nccc(Oc3ccc(Nc4ccc(C(C)(C)C)cc4)cc3)c2cc1OC (stereo not drawn) [Compound 60, 1-{4-[4-(4-Tert-butyl-phenylamino)phenoxy]-6-methoxyquinolin-7-yloxy}-3-diethylaminopropan-2-ol] | 6.69
COc1cc2c(Oc3ccc(Nc4ccc(C(C)(C)C)cc4)cc3)ccnc2cc1OCC(O)CN1CCCC1 (stereo not drawn) [Compound 61, 1-{4-[4-(4-Tert-butyl-phenylamino)phenoxy]-6-methoxyquinolin-7-yloxy}-3-pyrrolidin-1-ylpropan-2-ol] | 6.73
COc1cc2c(Oc3ccc(Nc4ccc(C(C)(C)C)cc4)cc3)ccnc2cc1OCC(O)CN1CCCCC1 (stereo not drawn) [Compound 62, 1-{4-[4-(4-Tert-butyl-phenylamino)phenoxy]-6-methoxyquinolin-7-yloxy}-3-piperidin-1-ylpropan-2-ol] | 6.60
COc1cc2c(Oc3ccc(Nc4ccc(C(C)(C)C)cc4)cc3)ccnc2cc1OCC(O)CN1CCCCCC1 (stereo not drawn) [Compound 63, 1-Azepan-1-yl-3-{4-[4-(4-tert-butylphenylamino)phenoxy]-6-methoxyquinolin-7-yloxy}propan-2-ol] | 6.61
COc1cc2c(Oc3ccc(Nc4ccc(C(C)(C)C)cc4)cc3)ccnc2cc1OCC(O)CN1CCN(C)CC1 (stereo not drawn) [Compound 64, 1-{4-[4-(4-Tert-butylphenylamino)phenoxy]-6-methoxyquinolin-7-yloxy}-3-(4-methylpiperazin-1-yl)propan-2-ol] | 6.75
